Source: US10441663B2, “Methods for treating cancer” (Bicycle Therapeutics Limited, priority 2016, dated 2019)
*1 amine or outer side, *2 acyl side, *3 side chain or, on linkers, in order; H or OH if unused. Where a SMILES comes first, the peptide text is derived from it. Bridges are numbered along the chain shown (N, C = ends). [ ]: non-standard residue; d: D form. The star is where a group is joined. X1 = COc1cc2cc(c1Cl)N(C)C(=O)C[C@H](OC(=O)[C@H](C)N(C)C(=O)CCSSC(C)CCC(=O)*)[C@]1(C)O[C@H]1[C@H](C)[C@@H]1C[C@@](O)(NC(=O)O1)[C@H](OC)/C=C/C=C(\C)C2; 1Nal = N[C@@H](Cc1cccc2ccccc12)C(=O)O; TBMB = c1c(C[*:1])cc(C[*:3])cc1C[*:2]; Tle = CC(C)(C)[C@H](N)C(=O)O; βAla = NCCC(=O)O; Sar = CNCC(=O)O

Legend:
MDA-MB-231 xenograft = experiment: In vivo efficacy of BT1718 in MDA-MB-231 xenograft; set-up: species or system Mus Musculus; conditions: after 2-3 weeks 10 mg/kg biw
Experimental: (§1) The objective of this study was to evaluate the in vivo anti-tumor efficacy of BT1718in treatment of HT1080, NCI-H292, NCI-H1975, MDA-MB-231, HCC1806, RPMI2650, HCT-15, HT-29 and SNU-16 xenograft in BALB/c nude mice.
(§2) The HT1080, NCI-H292, NCI-H1975, MDA-MB-231, HCC1806, RPMI2650, HCT-15, HT-29 and SNU-16 tumor cells were maintained in vitro as a monolayer culture in medium supplemented with 10% heat inactivated fetal bovine serum at 37° C. in an […]. The tumor cells will be routinely subcultured twice weekly by trypsin-EDTA treatment. The cells growing in an exponential growth phase will be harvested and counted for tumor inoculation.
(§3) Mouse was inoculated subcutaneously at the right flank with tumor cells for tumor development. The animals were randomized and treatment was started when the average tumor reaches certain volume for the efficacy study, the inoculating cell amounts and starting tumor size were shown as below in Table 9. The test article administration and the animal numbers in each group were shown in the experimental design in Table 10.
(§4) All the procedures related to animal handling, care and the treatment in the study were performed according to the guidelines of the Association for Assessment and Accreditation of Laboratory Animal Care (AAALAC). At the time of routine monitoring, the animals were daily checked for any effects of tumor growth and treatments on normal behavior such as mobility, food and water consumption (by looking only), body weight gain/loss (body weights were measured every day), eye/hair matting and any other abnormal effect as stated in the protocol. Death and observed clinical signs were recorded on the basis of the numbers of animals within each subset.
(§5) The major endpoint was to see if the tumor growth could be delayed or mice could be cured. Tumor size was measured three times weekly in two dimensions using a caliper, and the volume was expressed in mm^3 using the formula: V=0.5 a×b^2 where a and b are the long and short diameters of the tumor, respectively. The tumor size was then used for calculations of T/C value. The T/C value (in percent) is an indication of antitumor effectiveness; T and C are the mean volumes of the treated and control groups, respectively, on a given day.
(§6) TGI was calculated for each group using the formula: TGI (%)=[1−(Ti−T0)/(Vi−V0)]×100; Ti is the average tumor volume of a treatment group on a given day, T0 is the average tumor volume of the treatment group on the day of treatment start, Vi is the average tumor volume of the vehicle control group on the same day with Ti, and V0 is the average tumor volume of the vehicle group on the day of treatment start.
(§7) Summary statistics, including mean and the standard error of the mean (SEM), are provided for the tumor volume of each group at each time point.
(§8) Statistical analysis of difference in tumor volume among the groups was conducted on the data obtained at the best therapeutic time point after the final dose.
(§9) A one-way ANOVA was performed to compare tumor volume among groups, and when a significant F-statistics (a ratio of treatment variance to the error variance) was obtained, comparisons between groups were carried out with Games-Howell test. All data were analyzed using Prism. P<0.05 was considered to be statistically significant.

HCT-15 xenograft = experiment: In vivo efficacy of BT1718 in HCT-15 xenograft; set-up: species or system Mus Musculus
Experimental: as §1, §2, §3, §4, §5, §6, §7, §8, §9

COc1cc2cc(c1Cl)N(C)C(=O)C[C@H](OC(=O)[C@H](C)N(C)C(=O)CCSSC(C)CCC(=O)NCCC(=O)N(C)CC(=O)N(C)CC(=O)N(C)CC(=O)N(C)CC(=O)N(C)CC(=O)N(C)CC(=O)N(C)CC(=O)N(C)CC(=O)N(C)CC(=O)N(C)CC(=O)N[C@@H](C)C(=O)N[C@H]1CSCc3cc4cc(c3)CSC[C@H](NC(=O)[C@@H](C)NC(=O)[C@H](Cc3cccc5ccccc35)NC(=O)[C@H](CCC(=O)O)NC(=O)[C@H](CC(N)=O)NC(=O)[C@@H](C)NC1=O)C(=O)N[C@@H](CCC(=O)O)C(=O)N[C@@H](CC(=O)O)C(=O)N[C@@H](Cc1ccccc1)C(=O)N[C@@H](Cc1ccc(O)cc1)C(=O)N[C@@H](CC(=O)O)C(=O)N[C@@H](C(C)(C)C)C(=O)N[C@H](C(N)=O)CSC4)[C@]1(C)O[C@H]1[C@H](C)[C@@H]1C[C@@](O)(NC(=O)O1)[C@H](OC)/C=C/C=C(\C)C2 (stereo partly shown) [BT1718] ({X1-βAla}-[Sar][Sar][Sar][Sar][Sar][Sar][Sar][Sar][Sar][Sar]AC[dA]NE[1Nal][dA]CEDFYD[Tle]C-NH2; linker 12-18-25 via TBMB (inferred))
tumor volume after regression (MDA-MB-231 xenograft): below 50 mm3
Body Weight (HCT-15 xenograft; 1 mpk biw, day 0): 22.2 ± 0.5 g
Tumor Volume (HCT-15 xenograft; 1 mpk biw, day 0): 157 ± 6 mm^3
Body Weight (HCT-15 xenograft; 1 mpk biw, day 2): 21.8 ± 0.3 g
Tumor Volume (HCT-15 xenograft; 1 mpk biw, day 2): 174 ± 9 mm^3
Body Weight (HCT-15 xenograft; 1 mpk biw, day 4): 21.6 ± 0.6 g
Tumor Volume (HCT-15 xenograft; 1 mpk biw, day 4): 207 ± 14 mm^3
Body Weight (HCT-15 xenograft; 1 mpk biw, day 7): 22.3 ± 0.5 g
Tumor Volume (HCT-15 xenograft; 1 mpk biw, day 7): 385 ± 19 mm^3
Body Weight (HCT-15 xenograft; 1 mpk biw, day 9): 21.9 ± 0.3 g
Tumor Volume (HCT-15 xenograft; 1 mpk biw, day 9): 585 ± 26 mm^3
Body Weight (HCT-15 xenograft; 1 mpk biw, day 11): 21.9 ± 0.5 g
Tumor Volume (HCT-15 xenograft; 1 mpk biw, day 11): 937 ± 70 mm^3
Body Weight (HCT-15 xenograft; 1 mpk biw, day 14): 22.1 ± 0.5 g
Tumor Volume (HCT-15 xenograft; 1 mpk biw, day 14): 1238 ± 36 mm^3
Body Weight (HCT-15 xenograft; 3 mpk biw, day 0): 21.6 ± 0.5 g
Tumor Volume (HCT-15 xenograft; 3 mpk biw, day 0): 157 ± 6 mm^3
Body Weight (HCT-15 xenograft; 3 mpk biw, day 2): 21.4 ± 0.2 g
Tumor Volume (HCT-15 xenograft; 3 mpk biw, day 2): 140 ± 7 mm^3
Body Weight (HCT-15 xenograft; 3 mpk biw, day 4): 21.6 ± 0.2 g
Tumor Volume (HCT-15 xenograft; 3 mpk biw, day 4): 195 ± 26 mm^3
Body Weight (HCT-15 xenograft; 3 mpk biw, day 7): 22.7 ± 0.4 g
Tumor Volume (HCT-15 xenograft; 3 mpk biw, day 7): 389 ± 47 mm^3
Body Weight (HCT-15 xenograft; 3 mpk biw, day 9): 22.2 ± 0.4 g
Tumor Volume (HCT-15 xenograft; 3 mpk biw, day 9): 581 ± 54 mm^3
Body Weight (HCT-15 xenograft; 3 mpk biw, day 11): 22.2 ± 0.5 g
Tumor Volume (HCT-15 xenograft; 3 mpk biw, day 11): 901 ± 79 mm^3
Body Weight (HCT-15 xenograft; 3 mpk biw, day 14): 22.3 ± 0.6 g
Tumor Volume (HCT-15 xenograft; 3 mpk biw, day 14): 1180 ± 143 mm^3
Body Weight (HCT-15 xenograft; 10 mpk biw, day 0): 22.2 ± 0.3 g
Tumor Volume (HCT-15 xenograft; 10 mpk biw, day 0): 157 ± 11 mm^3
Body Weight (HCT-15 xenograft; 10 mpk biw, day 2): 21.2 ± 0.2 g
Tumor Volume (HCT-15 xenograft; 10 mpk biw, day 2): 130 ± 7 mm^3
Body Weight (HCT-15 xenograft; 10 mpk biw, day 4): 20.2 ± 0.5 g
Tumor Volume (HCT-15 xenograft; 10 mpk biw, day 4): 138 ± 14 mm^3
Body Weight (HCT-15 xenograft; 10 mpk biw, day 7): 21.7 ± 0.3 g
Tumor Volume (HCT-15 xenograft; 10 mpk biw, day 7): 265 ± 16 mm^3
Body Weight (HCT-15 xenograft; 10 mpk biw, day 9): 19.9 ± 0.3 g
Tumor Volume (HCT-15 xenograft; 10 mpk biw, day 9): 342 ± 47 mm^3
Body Weight (HCT-15 xenograft; 10 mpk biw, day 11): 20.3 ± 0.7 g
Tumor Volume (HCT-15 xenograft; 10 mpk biw, day 11): 562 ± 73 mm^3
Body Weight (HCT-15 xenograft; 10 mpk biw, day 14): 20.8 ± 0.8 g
Tumor Volume (HCT-15 xenograft; 10 mpk biw, day 14): 880 ± 89 mm^3
Best response at 10 mg/kg (HCT-15 xenograft; HCT-15, 10 mg/kg): Growth delay
TGI (HCT-15 xenograft; HCT-15, 1 mpk, biw, day 14): −0.9%
Tumor Volume (HCT-15 xenograft; HCT-15, 1 mpk, biw, day 14): 1238 ± 36 mm^3
TGI (HCT-15 xenograft; HCT-15, 3 mpk, biw, day 14): 4.6%
Tumor Volume (HCT-15 xenograft; HCT-15, 3 mpk, biw, day 14): 1180 ± 143 mm^3
TGI (HCT-15 xenograft; HCT-15, 10 mpk, biw, day 14): 32.5%
Tumor Volume (HCT-15 xenograft; HCT-15, 10 mpk, biw, day 14): 880 ± 89 mm^3
Minimally Effective Dose IV BIW (HCT-15 xenograft; HCT-15, dose leading to tumor-stasis): >10 mg/kg
anti-tumor activity (HCT-15 xenograft; mouse, in vivo): did not show obvious anti-tumor activity
